Data taken from PMC3834941, “Pharmacokinetic Evaluation of a DSPE-PEG2000 Micellar Formulation of Ridaforolimus in Rat” (Pharmaceutics, 2012).

Assays:
[1] = In vitro release by dialysis into PBS pH 7.4, 37 °C; format: physicochemical; settings: free drug
Description: The in vitro release of the drug from DSPE-PEG2000 micelles into PBS (pH 7.4) was done by a dialysis method. Dialysis was carried out at 37 °C under sink condition using a 10-kDa MWCO dialysis tubing (SnakeSkin®, Thermo Scientific Inc., Rockford, IL, USA). The initial volume of drug-loaded micelles in the dialysis tubing was 2 mL and the sink solution was 4 L. The PBS was changed several times per day to maintain sink conditions. After pre-determined time intervals, samples were withdrawn from the dialysis bag and analyzed by a reversed phase HPLC column (TSK-GEL® ODS-100Z, Tosoh Bioscience) at 50 °C with UV detection at 290 nm.

[2] = set-up: method as in PMID 19228743; settings: humans, clinical Phase I trials; cited from earlier work

in vitro release t50% [1]: less than 20 min
in vitro release t90% [1]: 1 h
SMILES: CO[C@H]1C[C@@H]2CC[C@@H](C)[C@@](O)(O2)C(=O)C(=O)N2CCCC[C@H]2C(=O)O[C@H]([C@H](C)C[C@@H]2CC[C@@H](OP(C)(C)=O)[C@H](OC)C2)CC(=O)[C@H](C)/C=C(\C)[C@@H](O)[C@@H](OC)C(=O)[C@H](C)C[C@H](C)/C=C/C=C/C=C/1C [Ridaforolimus, ridaforolimus]
half-life [2]: 45 to 52 h
